The NIST ThermoML archive (doi:10.1016/j.jct.2005.09.004)

Experiments:
[1] = refractive index (Na D-line) (dimensionless); φn = volume fraction of the nth substance listed; conditions: 101 kPa, Liquid, Standard Abbe refractometry
[2] = xn = mol fraction of the nth substance listed; conditions: for surface tension liquid-gas: Drop volume; for mass density: 101 kPa, Liquid

C1COCCO1 [1,4-dioxane] + C1CCCCC1
Conditions	mass density [kg/m3]	refractive index	surface tension liquid-gas [mN/m]
[1], 283.15 K, φ1 = 0.0478	–	1.4305	–
[1], 283.15 K, φ1 = 0.075	–	1.42987	–
[1], 283.15 K, φ1 = 0.1601	–	1.42827	–
[1], 283.15 K, φ1 = 0.251	–	1.4271	–
[1], 283.15 K, φ1 = 0.3438	–	1.42629	–
[1], 283.15 K, φ1 = 0.4452	–	1.42577	–
[1], 283.15 K, φ1 = 0.5448	–	1.42557	–
[1], 283.15 K, φ1 = 0.649	–	1.42556	–
[1], 283.15 K, φ1 = 0.756	–	1.42585	–
[1], 283.15 K, φ1 = 0.8802	–	1.42643	–
[1], 283.15 K, φ1 = 0.9414	–	1.4268	–
[1], 298.15 K, φ1 = 0.0319	–	1.4226	–
[1], 298.15 K, φ1 = 0.0849	–	1.42144	–
[1], 298.15 K, φ1 = 0.1562	–	1.42012	–
[1], 298.15 K, φ1 = 0.2528	–	1.41893	–
[1], 298.15 K, φ1 = 0.3465	–	1.41821	–
[1], 298.15 K, φ1 = 0.4415	–	1.4178	–
[1], 298.15 K, φ1 = 0.5389	–	1.4177	–
[1], 298.15 K, φ1 = 0.651	–	1.41786	–
[1], 298.15 K, φ1 = 0.7604	–	1.41827	–
[1], 298.15 K, φ1 = 0.8701	–	1.41893	–
[1], 298.15 K, φ1 = 0.9439	–	1.41949	–
[1], 313.15 K, φ1 = 0.0381	–	1.41404	–
[1], 313.15 K, φ1 = 0.0816	–	1.41308	–
[1], 313.15 K, φ1 = 0.1625	–	1.41168	–
[1], 313.15 K, φ1 = 0.268	–	1.41055	–
[1], 313.15 K, φ1 = 0.3476	–	1.41002	–
[1], 313.15 K, φ1 = 0.4399	–	1.40973	–
[1], 313.15 K, φ1 = 0.5368	–	1.40971	–
[1], 313.15 K, φ1 = 0.6463	–	1.41003	–
[1], 313.15 K, φ1 = 0.7626	–	1.41069	–
[1], 313.15 K, φ1 = 0.8682	–	1.41143	–
[1], 313.15 K, φ1 = 0.9462	–	1.4121	–
[2], 283.15 K, x1 = 0.0502	796.53	–	–
[2], 283.15 K, x1 = 0.0684	–	–	26.1
[2], 283.15 K, x1 = 0.0999	805.45	–	–
[2], 283.15 K, x1 = 0.1484	–	–	25.94
[2], 283.15 K, x1 = 0.1953	823.9	–	–
[2], 283.15 K, x1 = 0.2267	–	–	25.85
[2], 283.15 K, x1 = 0.2899	843.69	–	–
[2], 283.15 K, x1 = 0.2974	–	–	25.97
[2], 283.15 K, x1 = 0.3996	868.5	–	–
[2], 283.15 K, x1 = 0.4402	–	–	26.2
[2], 283.15 K, x1 = 0.5017	893.36	–	–
[2], 283.15 K, x1 = 0.5509	–	–	26.51
[2], 283.15 K, x1 = 0.6007	919.28	–	–
[2], 283.15 K, x1 = 0.6578	–	–	27.08
[2], 283.15 K, x1 = 0.699	946.87	–	–
[2], 283.15 K, x1 = 0.7394	–	–	27.97
[2], 283.15 K, x1 = 0.7956	976.06	–	–
[2], 283.15 K, x1 = 0.8115	–	–	29.3
[2], 283.15 K, x1 = 0.8994	1009.7	–	–
[2], 283.15 K, x1 = 0.9186	–	–	32
[2], 283.15 K, x1 = 0.9446	1025.26	–	–
[2], 283.15 K, x1 = 0.9738	–	–	33.93
[2], 298.15 K, x1 = 0.0535	782.54	–	–
[2], 298.15 K, x1 = 0.0684	–	–	25.1
[2], 298.15 K, x1 = 0.1053	791.71	–	–
[2], 298.15 K, x1 = 0.1484	–	–	25.24
[2], 298.15 K, x1 = 0.1998	809.79	–	–
[2], 298.15 K, x1 = 0.2267	–	–	25.29
[2], 298.15 K, x1 = 0.2974	–	–	25.38
[2], 298.15 K, x1 = 0.3003	830.58	–	–
[2], 298.15 K, x1 = 0.4026	853.43	–	–
[2], 298.15 K, x1 = 0.4402	–	–	25.72
[2], 298.15 K, x1 = 0.5006	876.98	–	–
[2], 298.15 K, x1 = 0.5509	–	–	26.07
[2], 298.15 K, x1 = 0.5971	901.85	–	–
[2], 298.15 K, x1 = 0.6578	–	–	26.62
[2], 298.15 K, x1 = 0.7028	931.22	–	–
[2], 298.15 K, x1 = 0.7394	–	–	27.1
[2], 298.15 K, x1 = 0.8089	963.35	–	–
[2], 298.15 K, x1 = 0.8115	–	–	28
[2], 298.15 K, x1 = 0.9038	994.24	–	–
[2], 298.15 K, x1 = 0.9186	–	–	30.26
[2], 298.15 K, x1 = 0.9485	1009.6	–	–
[2], 298.15 K, x1 = 0.9738	–	–	31.99
[2], 313.15 K, x1 = 0.0497	767.71	–	–
[2], 313.15 K, x1 = 0.0684	–	–	23.8
[2], 313.15 K, x1 = 0.102	776.79	–	–
[2], 313.15 K, x1 = 0.1484	–	–	24.23
[2], 313.15 K, x1 = 0.1944	794	–	–
[2], 313.15 K, x1 = 0.2267	–	–	24.46
[2], 313.15 K, x1 = 0.2926	813.99	–	–
[2], 313.15 K, x1 = 0.2974	–	–	24.71
[2], 313.15 K, x1 = 0.3973	837	–	–
[2], 313.15 K, x1 = 0.4402	–	–	25.23
[2], 313.15 K, x1 = 0.4969	860.64	–	–
[2], 313.15 K, x1 = 0.5509	–	–	25.7
[2], 313.15 K, x1 = 0.5992	886.73	–	–
[2], 313.15 K, x1 = 0.6578	–	–	26.2
[2], 313.15 K, x1 = 0.6988	914.22	–	–
[2], 313.15 K, x1 = 0.7394	–	–	26.62
[2], 313.15 K, x1 = 0.7966	943.29	–	–
[2], 313.15 K, x1 = 0.8115	–	–	27.13
[2], 313.15 K, x1 = 0.8972	975.49	–	–
[2], 313.15 K, x1 = 0.9186	–	–	28.62
[2], 313.15 K, x1 = 0.9505	993.41	–	–
[2], 313.15 K, x1 = 0.9738	–	–	30.17
